Measured values from ChEMBL document CHEMBL5724914, “Linking interpersonal differences in gut microbiota composition and drug biotransformation activity” (2024).

Conditions: human gut metagenome, 24 h, 2 µM
Note: call rule not given here.

SMILES | Bacterial Biotransformation
CCCC1O[C@@H]2C[C@H]3[C@@H]4CCC5=CC(=O)C=C[C@]5(C)[C@H]4[C@@H](O)C[C@]3(C)[C@]2(C(=O)CO)O1 (stereo partly specified) [BUDESONIDE] | Compound metabolized
Cc1cc2c(cc1S(N)(=O)=O)S(=O)(=O)CCC2 | Compound NOT metabolized
COc1ccccc1OCC(O)COC(N)=O (stereo unspecified) [METHOCARBAMOL] | Compound NOT metabolized
CCC(COC(=O)c1cc(OC)c(OC)c(OC)c1)(c1ccccc1)N(C)C.O=C(O)/C=C\C(=O)O (stereo unspecified) | Compound NOT metabolized
CN(C)CCC=C1c2ccccc2C=Cc2ccccc21 [CYCLOBENZAPRINE] | Compound metabolized
CCN(CC)CCNC(=O)c1cc(Cl)c(N)cc1OC [METOCLOPRAMIDE] | Compound NOT metabolized

Further lines, results first:

Bacterial Biotransformation | SMILES
Compound metabolized | CCCCc1nc(Cl)c(CO)n1Cc1ccc(-c2ccccc2-c2nn[nH]n2)cc1 [LOSARTAN]
Compound metabolized | CCCc1nc(C(C)(C)O)c(C(=O)OCc2oc(=O)oc2C)n1Cc1ccc(-c2ccccc2-c2nnn[nH]2)cc1 [OLMESARTAN MEDOXOMIL]
Compound metabolized | CCCCC(=O)N(Cc1ccc(-c2ccccc2-c2nnn[nH]2)cc1)[C@H](C(=O)O)C(C)C

Experiment: (§1) The drug is tested on WLS-006 corresponding to human gut metagenome with ENA study accession number: PRJEB37062 and ENA sample accession number: ERS12561741 for biotransformation under anaerobic condition. The drug concentrations were measured over 9 timepoints collected between 0 and 24 hours of incubation by liquid-chromatography-coupled mass spectrometry (LC–MS)
Conditions: 2 µM

SMILES | Bacterial Biotransformation
CCCC1O[C@@H]2C[C@H]3[C@@H]4CCC5=CC(=O)C=C[C@]5(C)[C@H]4[C@@H](O)C[C@]3(C)[C@]2(C(=O)CO)O1 (stereo partly specified) [BUDESONIDE] | Compound metabolized
Cc1cc2c(cc1S(N)(=O)=O)S(=O)(=O)CCC2 | Compound NOT metabolized
COc1ccccc1OCC(O)COC(N)=O (stereo unspecified) [METHOCARBAMOL] | Compound NOT metabolized
CCC(COC(=O)c1cc(OC)c(OC)c(OC)c1)(c1ccccc1)N(C)C.O=C(O)/C=C\C(=O)O (stereo unspecified) | Compound NOT metabolized
CN(C)CCC=C1c2ccccc2C=Cc2ccccc21 [CYCLOBENZAPRINE] | Compound metabolized
CCN(CC)CCNC(=O)c1cc(Cl)c(N)cc1OC [METOCLOPRAMIDE] | Compound NOT metabolized

More lines, now with the values ahead:

Bacterial Biotransformation | SMILES
Compound metabolized | CCCCc1nc(Cl)c(CO)n1Cc1ccc(-c2ccccc2-c2nn[nH]n2)cc1 [LOSARTAN]
Compound metabolized | CCCc1nc(C(C)(C)O)c(C(=O)OCc2oc(=O)oc2C)n1Cc1ccc(-c2ccccc2-c2nnn[nH]2)cc1 [OLMESARTAN MEDOXOMIL]
Compound metabolized | CCCCC(=O)N(Cc1ccc(-c2ccccc2-c2nnn[nH]2)cc1)[C@H](C(=O)O)C(C)C

Conditions: human gut metagenome, 24 h, 2 µM
Remark: another data set of the same source

SMILES | Bacterial Biotransformation
CCCC1O[C@@H]2C[C@H]3[C@@H]4CCC5=CC(=O)C=C[C@]5(C)[C@H]4[C@@H](O)C[C@]3(C)[C@]2(C(=O)CO)O1 (stereo partly specified) [BUDESONIDE] | Compound metabolized
Cc1cc2c(cc1S(N)(=O)=O)S(=O)(=O)CCC2 | Compound NOT metabolized
COc1ccccc1OCC(O)COC(N)=O (stereo unspecified) [METHOCARBAMOL] | Compound NOT metabolized
CCC(COC(=O)c1cc(OC)c(OC)c(OC)c1)(c1ccccc1)N(C)C.O=C(O)/C=C\C(=O)O (stereo unspecified) | Compound NOT metabolized
CN(C)CCC=C1c2ccccc2C=Cc2ccccc21 [CYCLOBENZAPRINE] | Compound metabolized
CCN(CC)CCNC(=O)c1cc(Cl)c(N)cc1OC [METOCLOPRAMIDE] | Compound NOT metabolized

Further lines, results first:

Bacterial Biotransformation | SMILES
Compound metabolized | CCCCc1nc(Cl)c(CO)n1Cc1ccc(-c2ccccc2-c2nn[nH]n2)cc1 [LOSARTAN]
Compound NOT metabolized | CCCc1nc(C(C)(C)O)c(C(=O)OCc2oc(=O)oc2C)n1Cc1ccc(-c2ccccc2-c2nnn[nH]2)cc1 [OLMESARTAN MEDOXOMIL]
Compound metabolized | CCCCC(=O)N(Cc1ccc(-c2ccccc2-c2nnn[nH]2)cc1)[C@H](C(=O)O)C(C)C

Conditions: human gut metagenome, 24 h, 2 µM
Remark: another data set of the same source

SMILES | Bacterial Biotransformation
CCCC1O[C@@H]2C[C@H]3[C@@H]4CCC5=CC(=O)C=C[C@]5(C)[C@H]4[C@@H](O)C[C@]3(C)[C@]2(C(=O)CO)O1 (stereo partly specified) [BUDESONIDE] | Compound metabolized
Cc1cc2c(cc1S(N)(=O)=O)S(=O)(=O)CCC2 | Compound NOT metabolized
COc1ccccc1OCC(O)COC(N)=O (stereo unspecified) [METHOCARBAMOL] | Compound NOT metabolized
CCC(COC(=O)c1cc(OC)c(OC)c(OC)c1)(c1ccccc1)N(C)C.O=C(O)/C=C\C(=O)O (stereo unspecified) | Compound metabolized
CN(C)CCC=C1c2ccccc2C=Cc2ccccc21 [CYCLOBENZAPRINE] | Compound NOT metabolized
CCN(CC)CCNC(=O)c1cc(Cl)c(N)cc1OC [METOCLOPRAMIDE] | Compound NOT metabolized

Further lines, results first:

Bacterial Biotransformation | SMILES
Compound metabolized | CCCCc1nc(Cl)c(CO)n1Cc1ccc(-c2ccccc2-c2nn[nH]n2)cc1 [LOSARTAN]
Compound metabolized | CCCc1nc(C(C)(C)O)c(C(=O)OCc2oc(=O)oc2C)n1Cc1ccc(-c2ccccc2-c2nnn[nH]2)cc1 [OLMESARTAN MEDOXOMIL]
Compound NOT metabolized | CCCCC(=O)N(Cc1ccc(-c2ccccc2-c2nnn[nH]2)cc1)[C@H](C(=O)O)C(C)C

Conditions: human gut metagenome, 24 h, 2 µM
Remark: another data set of the same source

SMILES | Bacterial Biotransformation
CCCC1O[C@@H]2C[C@H]3[C@@H]4CCC5=CC(=O)C=C[C@]5(C)[C@H]4[C@@H](O)C[C@]3(C)[C@]2(C(=O)CO)O1 (stereo partly specified) [BUDESONIDE] | Compound metabolized
Cc1cc2c(cc1S(N)(=O)=O)S(=O)(=O)CCC2 | Compound NOT metabolized
COc1ccccc1OCC(O)COC(N)=O (stereo unspecified) [METHOCARBAMOL] | Compound NOT metabolized
CCC(COC(=O)c1cc(OC)c(OC)c(OC)c1)(c1ccccc1)N(C)C.O=C(O)/C=C\C(=O)O (stereo unspecified) | Compound metabolized
CN(C)CCC=C1c2ccccc2C=Cc2ccccc21 [CYCLOBENZAPRINE] | Compound metabolized
CCN(CC)CCNC(=O)c1cc(Cl)c(N)cc1OC [METOCLOPRAMIDE] | Compound NOT metabolized

The next lines start with the values.

Bacterial Biotransformation | SMILES
Compound metabolized | CCCCc1nc(Cl)c(CO)n1Cc1ccc(-c2ccccc2-c2nn[nH]n2)cc1 [LOSARTAN]
Compound NOT metabolized | CCCc1nc(C(C)(C)O)c(C(=O)OCc2oc(=O)oc2C)n1Cc1ccc(-c2ccccc2-c2nnn[nH]2)cc1 [OLMESARTAN MEDOXOMIL]
Compound metabolized | CCCCC(=O)N(Cc1ccc(-c2ccccc2-c2nnn[nH]2)cc1)[C@H](C(=O)O)C(C)C

Experiment: as §1, with “WLS-077” for “WLS-006”, “ERS12561750” for “ERS12561741”
Conditions: 2 µM

SMILES | Bacterial Biotransformation
CCCC1O[C@@H]2C[C@H]3[C@@H]4CCC5=CC(=O)C=C[C@]5(C)[C@H]4[C@@H](O)C[C@]3(C)[C@]2(C(=O)CO)O1 (stereo partly specified) [BUDESONIDE] | Compound metabolized
Cc1cc2c(cc1S(N)(=O)=O)S(=O)(=O)CCC2 | Compound NOT metabolized
COc1ccccc1OCC(O)COC(N)=O (stereo unspecified) [METHOCARBAMOL] | Compound NOT metabolized
CCC(COC(=O)c1cc(OC)c(OC)c(OC)c1)(c1ccccc1)N(C)C.O=C(O)/C=C\C(=O)O (stereo unspecified) | Compound NOT metabolized
CN(C)CCC=C1c2ccccc2C=Cc2ccccc21 [CYCLOBENZAPRINE] | Compound NOT metabolized
CCN(CC)CCNC(=O)c1cc(Cl)c(N)cc1OC [METOCLOPRAMIDE] | Compound NOT metabolized

Results, then the compound that gave them:

Bacterial Biotransformation | SMILES
Compound NOT metabolized | CCCCc1nc(Cl)c(CO)n1Cc1ccc(-c2ccccc2-c2nn[nH]n2)cc1 [LOSARTAN]
Compound metabolized | CCCc1nc(C(C)(C)O)c(C(=O)OCc2oc(=O)oc2C)n1Cc1ccc(-c2ccccc2-c2nnn[nH]2)cc1 [OLMESARTAN MEDOXOMIL]
Compound metabolized | CCCCC(=O)N(Cc1ccc(-c2ccccc2-c2nnn[nH]2)cc1)[C@H](C(=O)O)C(C)C

Conditions: human gut metagenome, 24 h, 2 µM
Remark: another data set of the same source

SMILES | Bacterial Biotransformation
CCCC1O[C@@H]2C[C@H]3[C@@H]4CCC5=CC(=O)C=C[C@]5(C)[C@H]4[C@@H](O)C[C@]3(C)[C@]2(C(=O)CO)O1 (stereo partly specified) [BUDESONIDE] | Compound metabolized
Cc1cc2c(cc1S(N)(=O)=O)S(=O)(=O)CCC2 | Compound NOT metabolized
COc1ccccc1OCC(O)COC(N)=O (stereo unspecified) [METHOCARBAMOL] | Compound NOT metabolized
CCC(COC(=O)c1cc(OC)c(OC)c(OC)c1)(c1ccccc1)N(C)C.O=C(O)/C=C\C(=O)O (stereo unspecified) | Compound NOT metabolized
CN(C)CCC=C1c2ccccc2C=Cc2ccccc21 [CYCLOBENZAPRINE] | Compound NOT metabolized
CCN(CC)CCNC(=O)c1cc(Cl)c(N)cc1OC [METOCLOPRAMIDE] | Compound NOT metabolized

Further lines, results first:

Bacterial Biotransformation | SMILES
Compound NOT metabolized | CCCCc1nc(Cl)c(CO)n1Cc1ccc(-c2ccccc2-c2nn[nH]n2)cc1 [LOSARTAN]
Compound metabolized | CCCc1nc(C(C)(C)O)c(C(=O)OCc2oc(=O)oc2C)n1Cc1ccc(-c2ccccc2-c2nnn[nH]2)cc1 [OLMESARTAN MEDOXOMIL]
Compound metabolized | CCCCC(=O)N(Cc1ccc(-c2ccccc2-c2nnn[nH]2)cc1)[C@H](C(=O)O)C(C)C

Experiment: as §1, with “Z-009” for “WLS-006”, “pig” for “human”, “ERS12561809” for “ERS12561741”
Conditions: 2 µM

SMILES | Bacterial Biotransformation
CCCC1O[C@@H]2C[C@H]3[C@@H]4CCC5=CC(=O)C=C[C@]5(C)[C@H]4[C@@H](O)C[C@]3(C)[C@]2(C(=O)CO)O1 (stereo partly specified) [BUDESONIDE] | Compound metabolized
Cc1cc2c(cc1S(N)(=O)=O)S(=O)(=O)CCC2 | Compound NOT metabolized
COc1ccccc1OCC(O)COC(N)=O (stereo unspecified) [METHOCARBAMOL] | Compound NOT metabolized
CCC(COC(=O)c1cc(OC)c(OC)c(OC)c1)(c1ccccc1)N(C)C.O=C(O)/C=C\C(=O)O (stereo unspecified) | Compound metabolized
CN(C)CCC=C1c2ccccc2C=Cc2ccccc21 [CYCLOBENZAPRINE] | Compound metabolized
CCN(CC)CCNC(=O)c1cc(Cl)c(N)cc1OC [METOCLOPRAMIDE] | Compound NOT metabolized

Now from value to compound:

Bacterial Biotransformation | SMILES
Compound NOT metabolized | CCCCc1nc(Cl)c(CO)n1Cc1ccc(-c2ccccc2-c2nn[nH]n2)cc1 [LOSARTAN]
Compound metabolized | CCCc1nc(C(C)(C)O)c(C(=O)OCc2oc(=O)oc2C)n1Cc1ccc(-c2ccccc2-c2nnn[nH]2)cc1 [OLMESARTAN MEDOXOMIL]
Compound NOT metabolized | CCCCC(=O)N(Cc1ccc(-c2ccccc2-c2nnn[nH]2)cc1)[C@H](C(=O)O)C(C)C

Experiment: as §1, with “WLS-069” for “WLS-006”, “ERS12561748” for “ERS12561741”
Conditions: 2 µM

SMILES | Bacterial Biotransformation
CCCC1O[C@@H]2C[C@H]3[C@@H]4CCC5=CC(=O)C=C[C@]5(C)[C@H]4[C@@H](O)C[C@]3(C)[C@]2(C(=O)CO)O1 (stereo partly specified) [BUDESONIDE] | Compound metabolized
Cc1cc2c(cc1S(N)(=O)=O)S(=O)(=O)CCC2 | Compound NOT metabolized
COc1ccccc1OCC(O)COC(N)=O (stereo unspecified) [METHOCARBAMOL] | Compound NOT metabolized
CCC(COC(=O)c1cc(OC)c(OC)c(OC)c1)(c1ccccc1)N(C)C.O=C(O)/C=C\C(=O)O (stereo unspecified) | Compound metabolized
CN(C)CCC=C1c2ccccc2C=Cc2ccccc21 [CYCLOBENZAPRINE] | Compound metabolized
CCN(CC)CCNC(=O)c1cc(Cl)c(N)cc1OC [METOCLOPRAMIDE] | Compound NOT metabolized

Other lines, results leading:

Bacterial Biotransformation | SMILES
Compound metabolized | CCCCc1nc(Cl)c(CO)n1Cc1ccc(-c2ccccc2-c2nn[nH]n2)cc1 [LOSARTAN]
Compound metabolized | CCCc1nc(C(C)(C)O)c(C(=O)OCc2oc(=O)oc2C)n1Cc1ccc(-c2ccccc2-c2nnn[nH]2)cc1 [OLMESARTAN MEDOXOMIL]
Compound metabolized | CCCCC(=O)N(Cc1ccc(-c2ccccc2-c2nnn[nH]2)cc1)[C@H](C(=O)O)C(C)C
